Consider 29 compounds from EP0922455A1, “HIV-1 PROTEASE INHIBITORS, PROCESS FOR PRODUCING THE SAME, AND MEDICINAL COMPOSITIONS” (NISSUI PHARMACEUTICAL CO., LTD., priority 1997, dated 1998).

The target of test [1] is T1, HIV-1 protease (Human immunodeficiency virus type 1 group M subtype B, UniProt P03366). The experiment in a line: inhibitory activity against HIV-1 protease (cleavage of substrate Suc-Ser-Gln-Asn-Tyr-Pro-Ile-Val-Gln, HPLC / PICO-TAG analysis). It counts as biochemical. Further details: β-galactosidase (fusion partner in the expressed precursor); made in house; host or cells: E. coli K12 (UT481). The procedure: (§1) Plasmid pLB550-1 for expressing a fusion protein of partial pol protein containing HIV-1 protease and β-galactosidase was transfected into E. coli K12 (UT481) [Werman, K. F. et al. J. Bacteriol, 163: 376 - 384 (1985)] by the CaCl2 method, and was enzyme-induced by isopropyl-β-D(-)-thiogalactopyranoside and was cultured for 6 hours. Thereafter, the bacteria were collected. The bacterial were treated with lysozyme and crashed with glass beads. Subsequently, the solubilized supernatant was purified by DEAE-cellulofine, SP-Toyopearl and pepstatin A agarose column chromatography, to obtain a purified HIV-1 protease.
Synthesized peptide composed of Suc-Ser-Gln-Asn-Tyr-Pro-Ile-Val-Gln as a substrate was dissolved into 50 mM MES-NaOH buffer solution (pH 5.5) so that its concentration in enzyme reaction would be 0.57 mM, 1.25 mM, 1.43 mM, 1.67 mM and 2.0 mM. Into 50 µl of these substrate solutions, 50 µl of the purified enzyme solution of HIV-1 protease, obtained in the aforementioned preparing step, was added and then enzyme reaction was carried out at 37°C for 0 , 5, 10 and 15 minutes, respectively. To these solutions, 11.1 µl of acetonitryl containing 1% TFA was added to stop the enzyme reaction. The peptides obtained by the enzyme reaction were separated by high-performance liquid chromatography. Thereafter, enzyme activity thereof was measured by means of a PICO-TAG amino acid composition analyzing device. The initial velocities at the respective concentrations of the substrate were calculated and then analysis was performed based on by Lineweaver-Burk plots. […] In the substrate, the cleavage region was between Tyr and Pro.
On the other hand, the synthesized peptide, Suc-Ser-Gln-Asn-Tyr-Pro-Ile-Val-Gln as a substrate was used to measure inhibitory activity of the peptide of the sequence number 1 against HIV-1 protease as follows: 50 µl of the enzyme solution was added to 30 µl of solution of the peptide of the sequence number 1 in which the peptide was dissolved into 50 mM of MES-NaOH buffer solution (pH 5.5) so that its final concentration would be 10, 20, 40, 100 and 200 µM, and then enzyme reaction was carried out at 37 °C for 30 minutes.
Next, the solution of the substrate, Suc-Ser-Gln-Asn-Tyr-Pro-Ile-Val-Gln was added thereto so that its final concentration would be 1 mM, and then enzyme reaction was carried out at 37 °C for 0, 5, 10 and 15 minutes. To these solutions, 11.1 µl of acetonitryl containing 1% TFA was added to stop the enzyme reaction. The peptides obtained by the enzyme reaction were separated by high-performance liquid chromatography. Thereafter, enzyme activity thereof was measured by means of a PICO-TAG amino acid composition analyzing device. […] (The relative activity is represented as a percentage relative to the enzyme activity (value: 100) in the absence of the peptide of the sequence number 2.) From this graph, IC50 was calculated and obtained, so that IC50 was 10 µM.
50 µl of the enzyme solution was added to 30 µl of the peptide of the sequence number 2 dissolved into 50 mM of MES-NaOH buffer solution so that its final concentration would be 10 µM and then enzyme reaction was carried out at 37 °C for 30 minutes. The solution of the substrate, Suc-Ser-Gln-Asn-Tyr-Pro-Ile-Val-Gln was added thereto so that its final concentration would be 0.579 1.0, 1.43, 2.0 and 2.5 mM, and then enzyme reaction was carried out at 37 °C for 0, 5, 10 and 15 minutes. To these solutions, 11.1 µl of acetonitryl containing 1% TFA was added to stop the enzyme reaction, and then analysis was performed from Lineweaver-Burk plots. […] A control experiment was carried out in the absence of the peptide of the sequence number 2, in the same way.
(§2) Concerning these 30 kinds of compounds, inhibitory effect against of HIV protease and IC50 were measured in the same way as in 2) in Example 1.

The target in test [2] is T1, HIV-1 protease. Described as above. Conditions: same way as in 2) in Example 1. It counts as biochemical. Further details: partial pol protein containing HIV-1 protease; β-galactosidase (fusion partner in the expressed precursor); made in house; host or cells: E. coli K12 (UT481). The procedure: as §1
Synthesized peptide composed of Suc-Ser-Gln-Asn-Tyr-Pro-Ile-Val-Gln as a substrate was dissolved into 50 mM MES-NaOH buffer solution (pH 5.5) so that its concentration in enzyme reaction would be 0.57 mM, 1.25 mM, 1.43 mM, 1.67 mM and 2.0 mM. […] Thereafter, enzyme activity thereof was measured by means of a PICO-TAG amino acid composition analyzing device. The initial velocities at the respective concentrations of the substrate were calculated and then analysis was performed based on by Lineweaver-Burk plots. […]
as §2

The target in test [3] is T1, HIV-1 protease. Also noted: β-galactosidase (fusion partner in the expressed precursor); made in house; host or cells: E. coli K12 (UT481). As to conditions: Biochem. Biophys. Res. Commun. 194: 595 - 600; cited from earlier work.
Where [4] appears, read: class symbols, inhibitory effect at 500 µM or less, read-out: IC50(µM) (Inhibitory effect).
Setting [5] is: same way as in 2) in Example 1, read-out: IC50.

Like-named read-outs stand apart in the source and are kept apart here. *1 amine or outer side, *2 acyl side, *3 side chain or, on linkers, in order; H or OH if unused. Where a SMILES comes first, the peptide text is derived from it. Where no end group is shown, it is not given here. [ ]: non-standard residue; d: D form. The star is where a group is joined. Myristoyl = CCCCCCCCCCCCCC(=O)*; Suc = O=C(CCC(=O)[*:2])[*:1]; Aoc = NCCCCCCCC(=O)O; Ahx = NCCCCCC(=O)O Some results are limits rather than exact numbers.

What is called IC50 is the concentration that inhibits the measured activity by half. On to `CC[C@H](C)[C@H](NC(=O)[C@@H](NC(=O)[C@H](C)NC(=O)[C@@H]1CCCN1C(=O)[C@H](CC(N)=O)NC(=O)[C@@H](NC(=O)[C@@H](NC(=O)[C@H](CCC(N)=O)NC(=O)[C@H](CO)NC(=O)[C@H](CCSC)NC(=O)[C@H](C)NC(=O)[C@H](CCC(=O)O)NC(=O)[C@H](C)N)C(C)C)[C@@H](C)O)[C@@H](C)O)C(=O)N[C@@H](CCSC)C(=O)O` [Compound 3, AEAMSQVTNPATIM], for which, in test [1] (setting [4]), the IC50 is at least 500 µM.
Take `CC[C@H](C)[C@H](NC(=O)[C@@H](NC(=O)[C@H](C)NC(=O)[C@@H](NC(=O)[C@H](CC(N)=O)NC(=O)[C@@H](NC(=O)[C@@H](NC(=O)[C@H](CCC(N)=O)NC(=O)[C@H](CO)NC(=O)[C@H](CCSC)NC(=O)[C@H](C)NC(=O)[C@H](CCC(=O)O)NC(=O)[C@H](C)N)C(C)C)[C@@H](C)O)[C@@H](C)O)[C@@H](C)O)C(=O)N[C@@H](CCSC)C(=O)O` [Compound 4, AEAMSQVTNTATIM]: in test [1] (setting [4]), the IC50 is at most 500 µM.
Still for that read-out and setting: next, `CSCC[C@H](NC(=O)[C@H](C)NC(=O)[C@H](CCC(=O)O)NC(=O)[C@H](C)N)C(=O)N[C@@H](CO)C(=O)N[C@@H](CCC(N)=O)C(=O)NCCCCCCCC(=O)O` [Compound 14, AEAMSQAoc] (H-AEAMSQ[Aoc]-OH): at least 500 µM; `CSCC[C@H](NC(=O)[C@H](C)NC(=O)[C@H](CCC(=O)O)NC(=O)[C@H](C)N)C(=O)N[C@@H](CO)C(=O)N[C@@H](CCC(N)=O)C(=O)NCCCCCC(=O)O` [Compound 15, AEAMSQAhx] (H-AEAMSQ[Ahx]-OH): at least 500 µM.
As to `CSCC[C@H](NC(=O)[C@H](C)NC(=O)[C@H](CCC(=O)O)NC(=O)[C@H](C)NC(=O)CCC(=O)O)C(=O)N[C@@H](CO)C(=O)N[C@@H](CCC(N)=O)C(=O)NCCCCCC(=O)O` [Compound 16, Suc-AEAMSQAhx] (Suc-AEAMSQ[Ahx]-OH), the IC50 in test [1] (setting [4]) is at least 500 µM.
`CCCCCCCCCCCCCC(=O)N[C@@H](C)C(=O)N[C@@H](CCC(=O)O)C(=O)N[C@@H](C)C(=O)N[C@@H](CCSC)C(=O)N[C@@H](CO)C(=O)N[C@@H](CCC(N)=O)C(=O)O` [Compound 18, N-Myr-AEAMSQ] (Myristoyl-AEAMSQ-OH): in test [1] (setting [5]), the IC50 is 79 µM.
`CSCC[C@H](NC(=O)[C@H](C)NC(=O)[C@H](CCC(=O)O)NC(=O)[C@H](C)N)C(=O)O` [Compound 19, AEAM] (H-AEAM-OH): the IC50 in test [1] (setting [4]) was at least 500 µM.
For `CCCCCCCCCCCCCC(=O)N[C@@H](C)C(=O)N[C@@H](CCC(=O)O)C(=O)N[C@@H](C)C(=O)N[C@@H](CCSC)C(=O)O` [Compound 20, N-Myr-AEAM] (Myristoyl-AEAM-OH), the IC50 in test [1] (setting [5]) was 16 µM.
In the case of `CC(C)[C@H](N)C(=O)N[C@H](C(=O)N[C@@H](CC(N)=O)C(=O)O)[C@@H](C)O` [Compound 21, VTN] (H-Val-Thr-Asn-OH), the IC50 in test [1] (setting [4]) is at least 500 µM.
Take `CCCCCCCCCCCCCC(=O)N[C@@H](CCSC)C(=O)O` [Compound 23, N-Myr-M]: 44 µM corresponded to half-maximal inhibition in test [2] (IC50).
The same measure, in the same setting: under `CCCCCCCCCCCC(=O)N[C@@H](CCSC)C(=O)O` [Compound 25, N-Lau-M] stands 124 µM.
With `CSCC[C@H](NC(=O)CCCCCCCN)C(=O)O` [Compound 27, N-AocM], the IC50 in test [1] (setting [4]) was at least 500 µM.
The same measure, in the same setting: under `CSCC[C@H](NC(=O)CCCCCCCN)C(=O)NCCCCCCCC(=O)O` [Compound 28, N-AocMAoc] stands at least 500 µM.
On to `CSCC[C@H](NC(=O)CCCCCCCN)C(=O)NCCCCCCCC(=O)NCCCCCCCC(=O)O` [Compound 29, N-AocMAocAoc], for which, in test [1] (setting [4]), the IC50 is at least 500 µM.
Regarding `CSCC[C@H](NC(=O)CCCCCCCNC(=O)CCCCCCCN)C(=O)NCCCCCCCC(=O)O` [Compound 30, N-AocAocMAoc], in test [1] (setting [4]), the concentration for half-maximal inhibition (IC50) is at least 500 µM.
As usually defined, the Km is the concentration of substrate that gives half-maximal velocity. Regarding `CC[C@H](C)[C@H](NC(=O)[C@@H]1CCCN1C(=O)[C@H](Cc1ccc(O)cc1)NC(=O)[C@H](CC(N)=O)NC(=O)[C@H](CCC(N)=O)NC(=O)[C@H](CO)NC(=O)CCC(=O)O)C(=O)N[C@H](C(=O)N[C@@H](CCC(N)=O)C(=O)O)C(C)C` [Suc-Ser-Gln-Asn-Tyr-Pro-Ile-Val-Gln, reference compound] (Suc-SQNYPIVQ-OH), in test [1] (substrate 0.57-2.0 mM, pH 5.5, 37°C, Lineweaver-Burk plots (Fig. 1)), the Michaelis constant (Km) was 2200 µM.
With AAAMSQVTN [Compound 7, AAAMSQVTN], in test [1] (setting [4]), the IC50 is at most 500 µM.
As for AEAASQVTN [Compound 8, AEAASQVTN], the IC50 in test [1] (setting [4]) was at least 500 µM.
For the compound AEAMAQVTN [Compound 9, AEAMAQVTN], the IC50 in test [1] (setting [4]) was at most 500 µM.
Turning to AEAMSQ [Compound 17, AEAMSQ], in test [1] (setting [4]), the IC50 is at least 500 µM.
Take AEAMSQV [Compound 13, AEAMSQV]: in test [1] (setting [4]), the IC50 is at least 500 µM.
Take AEAMSQVAN [Compound 10, AEAMSQVAN]: in test [1] (setting [4]), the IC50 was at least 500 µM.
“AEAMSQVANTATIM [Compound 5, AEAMSQVANTATIM]”: the IC50 in test [1] (setting [4]) was at most 500 µM.
As for AEAMSQVT [Compound 12, AEAMSQVT], the IC50 in test [1] (setting [4]) is at least 500 µM.
For AEAMSQVTL [Compound 11, AEAMSQVTL], in test [1] (setting [5]), the IC50 was found to be 53 µM.
AEAMSQVTN [Compound 6, AEAMSQVTN]: in test [1] (setting [5]), the IC50 was 6 µM.
Same read-out and setting: under “AEAMSQVTNSATIM [Compound 2, AEAMSQVTNSATIM]” stands 22 µM.
With Ac-TVSFNF, in test [3], the inhibitory activity entry was “has inhibitory activity”.
Take VTNTATIM [Compound 22, VTNTATIM]: the half-inhibitory concentration (IC50) in test [1] (setting [4]) was at least 500 µM.
